Experimental data: US20240218059A1, “TGF-Beta 1 INHIBITORS FOR PREVENTING AND TREATING SARS-COV-2” (The Regents of the University of Colorado, A Body Corporate, priority 2020, published 2024)

Tests used:
[1] = tested on: active TGF-β1 signaling; test: inhibition of active TGF-β1 signaling in MLEC luciferase reporter cells; type: cell-based, mink
Procedure: In these experiments, SB505124 and galunisertib (Fisher, Inc.) inhibitors were added at 1-2 uM concentrations to MLEC plated in 96-well plates using a 1 hour pre-incubation before addition of human active TGF-β1 in […] concentrations with continued presence of the inhibitor for 18 hours overnight in standard conditions as described in Example 2 methods. A neutraceutical, the green tea catechin ECGC (Sigma) was also tested. Luciferase signals were determined after cell lysis and compared as in Example 2.

[2] = tested on: TGF-β1 signaling caused by NSP15 activation of human latent TGF-β1; type: cell-based, mink; settings: 1 hour pre-incubation; 2 μg/ml of antibody or 1-2 μM small molecule; 0-2.4 nM NSP15 plus 2 nM latent human TGF-β1; MLEC; FIG. 8
[3] = target: T1, human latent TGF-β1 (Homo sapiens, UniProt P01137); type: cell-based; settings: peptide incubated 45 minutes at 37° C. with 2 nM human latent TGF-β1, then 18 hours on MLEC; FIG. 5
T1 construct: purchased Acrobio, Inc
T1 sequence (P01137 30-278 limits assumed): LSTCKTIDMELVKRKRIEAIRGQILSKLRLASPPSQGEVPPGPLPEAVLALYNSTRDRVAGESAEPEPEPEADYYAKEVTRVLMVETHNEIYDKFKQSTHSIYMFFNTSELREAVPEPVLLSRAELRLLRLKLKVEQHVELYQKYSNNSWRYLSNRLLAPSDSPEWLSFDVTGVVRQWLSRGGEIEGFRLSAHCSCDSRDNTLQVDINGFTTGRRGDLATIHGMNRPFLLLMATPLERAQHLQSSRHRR

Compound	block of NSP15 mediated effects on TGF-β1 signaling [2]	activation of latent TGF-β1 (luciferase signal, RLU) [3]	also measured
O=C(O[C@@H]1Cc2c(O)cc(O)cc2O[C@@H]1c1cc(O)c(O)c(O)c1)c1cc(O)c(O)c(O)c1 [ECGC]			inhibition of active TGF-β1 signaling at higher concentrations ([1]; 80 uM, subsequent experiments, not shown): 80%; effectiveness at blocking active TGF-β1 signaling ([1]; 1-2 μM concentrations, MLEC, FIG. 7): not effective
Cc1cccc(-c2[nH]c(C(C)(C)C)nc2-c2ccc3c(c2)OCO3)n1 [SB505124]	block NSP15 mediated effects on TGF-β1 signaling		
Cc1cccc(-c2nn3c(c2-c2ccnc4ccc(C(N)=O)cc24)CCC3)n1 [galunisertib]	block NSP15 mediated effects on TGF-β1 signaling		
DKRFKQDGGWSHWSPW [TSP1]		not a significant activator of latent TGF-β1	
KFILALRKLLFESEGP [SCR]		not	
LLIGLAKRFKESPFEL [NSP15 KRFK-region peptide, 16 amino acid synthetic peptide centered on the SARS-CoV2 NSP15 KRFK region]		activates latent TGF-β1	
